Earlier results on 4 molecules are cited in patent publication US20250099551A1, “THERMOSTABLE FORMULATION OF A21G HUMAN INSULIN” (priority 2018, published 2025).

The conditions of the series: 25° C.
For `O=C(O)CN(CCN(CC(=O)O)CC(=O)O)CC(=O)O` [EDTA], the “Metal binding stability constant log K for zinc” value was 14.5.

As for `O=C(O)CN(CCOCCOCCN(CC(=O)O)CC(=O)O)CC(=O)O` [EGTA], the “Metal binding stability constant log K for zinc” value is recorded as 12.6.

In the case of `O=C(O)CC(O)(CC(=O)O)C(=O)O` [citrate], the “Metal binding stability constant log K for zinc” value is 4.93.

On to `N[C@@H](Cc1c[nH]cn1)C(=O)O` [histidine], for which the “Metal binding stability constant log K for zinc” value is given as 6.91.
